In one experiment the target is T1, EGFR (Homo sapiens, UniProt P00533).
T1 construct: purchased Carna Biosciences, Inc; host or cells: insect cell expression system
Description: Enzyme inhibitory activity on EGFR (time resolution fluorescence, biotinylated poly-Glu-Tyr substrate). Type of experiment: biochemical. The method, then: (§1) Enzyme Inhibitory Activity of Test Compound on EGFR and HER2
(§2) EGFR and HER2 purified from an insect cell expression system, and a biotinylated substrate (synthetic peptide of glutamic acid:tyrosine=4:1) were added to a 384-well plate with ATP added thereto, and an enzyme reaction was performed at room temperature. After completion of the enzyme reaction, an anti-phosphorylated tyrosine antibody labeled with europium and streptavidin labeled with alphycocyanine were added, and a phosphorylated tyrosine residue was quantified by a time resolution fluorescence method.
(§3) A test compound was adjusted to 10 mM using DMSO.
(§4) Further, using 10% DMSO solution, a 1 mM solution was prepared, and this was regarded as a maximum concentration point.
(§5) As a dilution series, a 4-fold dilution series was prepared to a 10 stage.
(§6) As a buffer, TBS containing 10 mM MgCl2, 5 mM MnCl2, 0.2 mM Na3VO4, and 0.1% BSA was used.
(§7) As EGFR and HER2 enzymes, those purified from an insect cell expression system were purchased from Carna Biosciences, Inc.
An EGFR enzyme solution was adjusted to 250 ng/ml using a buffer.
(§8) As a substrate, biotinylated poly-Glu-Tyr (4:1, manufactured by CISbio) was used. A concentration was adjusted to 3.125 μg/ml using the above buffer.
An ATP concentration on study of the EGFR enzyme was adjusted to 125 μM using the buffer.
(§9) For preparing a detection reagent, TBS containing 30 mM EDTA, 0.8M KF and 0.1% BSA was used.
(§10) An anti-phosphorylated tyrosine antibody labeled with europium, PT-66K (CISbio) was adjusted to 195 ng/ml, and streptavidin labeled with alphycocyanine, SA-XL (CISbio) was adjusted to 5 μg/ml.
(§11) As an assay plate, a 384-well plate was used. Per one well, 1.1 μl of a test compound, 4 μl of a substrate solution, and 4 μl of an enzyme solution were added, and 2 μl of an ATP solution was added to initiate an enzyme reaction. The enzyme reaction was performed at room temperature for 60 minutes, and 10 μl of a detection reagent was added to complete the reaction. One hour after completion of the reaction, time resolution fluorescent measurement was performed.

The next experiment addresses T2, HER2 (Homo sapiens, UniProt P04626).
T2 construct: purchased Carna Biosciences, Inc; host or cells: insect cell expression system
Description: Enzyme inhibitory activity on HER2 (time resolution fluorescence, biotinylated poly-Glu-Tyr substrate). Type of experiment: biochemical. Here is the method: as §1, §2, §3, §4, §5, §6, §7
HER2 kinase was adjusted to 1000 ng/ml using a buffer.
as §8
An ATP concentration on study of the HER2 enzyme was adjusted to 290 μM.
as §9, §10, §11

The next experiment has as its system BT-474. Description: In vitro cell proliferation inhibition, WST assay. Type of experiment: cell-based, human. The following applies: BT-474 cells, cultured for 3 days, read-out: BT-474 (nM) proliferation inhibitory activity (IC50 value). Here is the method:
Test of In Vitro Cell Proliferation Inhibition of Test Compound
As a human-derived cancer cell strain, BT-474 was used. Cells were all cultured in a 37° C., 5% CO2 incubator in a medium in which 10% bovine fetal serum (ICN) and 50 units ml penicillin/60 μg/ml streptomycin solution (GIBCO) were added to Dulbecco's Modified Essential Medium (DMEM, Nacalai Tesque, Inc).

The mark [1] stands for this setting: EGFR purified from insect cell expression system, ATP solution 125 μM, room temperature, 60 minutes.
Setting [2] is: HER2 purified from insect cell expression system, ATP solution 290 μM, room temperature, 60 minutes.
[3] abbreviates: enzyme reaction at room temperature for 60 minutes.

The structures appear in SMILES notation. Structures can show the parent of a compound that is named as a salt. Where two headings read alike, the source gives them in different places.

T1 sequence (P00533 25-1210): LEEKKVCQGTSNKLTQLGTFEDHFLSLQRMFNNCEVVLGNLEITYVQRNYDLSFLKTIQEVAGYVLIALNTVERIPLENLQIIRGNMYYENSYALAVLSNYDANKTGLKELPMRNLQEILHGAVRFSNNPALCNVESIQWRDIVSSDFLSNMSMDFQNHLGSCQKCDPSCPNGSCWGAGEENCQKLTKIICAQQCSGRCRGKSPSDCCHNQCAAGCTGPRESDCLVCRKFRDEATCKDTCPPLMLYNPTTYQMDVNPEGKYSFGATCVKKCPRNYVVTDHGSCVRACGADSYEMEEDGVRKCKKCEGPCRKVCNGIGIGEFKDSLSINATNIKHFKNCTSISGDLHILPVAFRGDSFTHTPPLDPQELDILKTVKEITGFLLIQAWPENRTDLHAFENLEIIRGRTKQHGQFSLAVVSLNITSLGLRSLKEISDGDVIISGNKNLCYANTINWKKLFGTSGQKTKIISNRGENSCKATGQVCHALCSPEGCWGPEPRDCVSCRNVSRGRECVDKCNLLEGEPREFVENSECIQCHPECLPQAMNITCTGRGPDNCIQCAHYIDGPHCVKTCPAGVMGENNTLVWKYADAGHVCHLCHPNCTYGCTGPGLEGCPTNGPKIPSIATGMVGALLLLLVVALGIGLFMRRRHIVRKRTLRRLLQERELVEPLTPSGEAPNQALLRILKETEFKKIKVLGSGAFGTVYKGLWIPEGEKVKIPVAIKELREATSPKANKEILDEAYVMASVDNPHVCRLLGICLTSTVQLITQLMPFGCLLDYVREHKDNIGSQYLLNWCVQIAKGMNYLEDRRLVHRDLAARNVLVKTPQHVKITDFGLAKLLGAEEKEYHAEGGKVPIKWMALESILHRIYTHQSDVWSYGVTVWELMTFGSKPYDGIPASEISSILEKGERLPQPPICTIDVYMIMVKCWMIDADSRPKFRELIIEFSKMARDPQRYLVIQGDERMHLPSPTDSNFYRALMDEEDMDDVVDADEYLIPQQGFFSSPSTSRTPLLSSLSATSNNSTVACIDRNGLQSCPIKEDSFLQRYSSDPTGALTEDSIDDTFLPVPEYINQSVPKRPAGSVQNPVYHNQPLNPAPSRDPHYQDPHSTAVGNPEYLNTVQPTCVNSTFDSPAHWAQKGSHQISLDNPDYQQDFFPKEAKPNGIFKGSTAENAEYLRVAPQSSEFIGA
T2 sequence (P04626 23-1255): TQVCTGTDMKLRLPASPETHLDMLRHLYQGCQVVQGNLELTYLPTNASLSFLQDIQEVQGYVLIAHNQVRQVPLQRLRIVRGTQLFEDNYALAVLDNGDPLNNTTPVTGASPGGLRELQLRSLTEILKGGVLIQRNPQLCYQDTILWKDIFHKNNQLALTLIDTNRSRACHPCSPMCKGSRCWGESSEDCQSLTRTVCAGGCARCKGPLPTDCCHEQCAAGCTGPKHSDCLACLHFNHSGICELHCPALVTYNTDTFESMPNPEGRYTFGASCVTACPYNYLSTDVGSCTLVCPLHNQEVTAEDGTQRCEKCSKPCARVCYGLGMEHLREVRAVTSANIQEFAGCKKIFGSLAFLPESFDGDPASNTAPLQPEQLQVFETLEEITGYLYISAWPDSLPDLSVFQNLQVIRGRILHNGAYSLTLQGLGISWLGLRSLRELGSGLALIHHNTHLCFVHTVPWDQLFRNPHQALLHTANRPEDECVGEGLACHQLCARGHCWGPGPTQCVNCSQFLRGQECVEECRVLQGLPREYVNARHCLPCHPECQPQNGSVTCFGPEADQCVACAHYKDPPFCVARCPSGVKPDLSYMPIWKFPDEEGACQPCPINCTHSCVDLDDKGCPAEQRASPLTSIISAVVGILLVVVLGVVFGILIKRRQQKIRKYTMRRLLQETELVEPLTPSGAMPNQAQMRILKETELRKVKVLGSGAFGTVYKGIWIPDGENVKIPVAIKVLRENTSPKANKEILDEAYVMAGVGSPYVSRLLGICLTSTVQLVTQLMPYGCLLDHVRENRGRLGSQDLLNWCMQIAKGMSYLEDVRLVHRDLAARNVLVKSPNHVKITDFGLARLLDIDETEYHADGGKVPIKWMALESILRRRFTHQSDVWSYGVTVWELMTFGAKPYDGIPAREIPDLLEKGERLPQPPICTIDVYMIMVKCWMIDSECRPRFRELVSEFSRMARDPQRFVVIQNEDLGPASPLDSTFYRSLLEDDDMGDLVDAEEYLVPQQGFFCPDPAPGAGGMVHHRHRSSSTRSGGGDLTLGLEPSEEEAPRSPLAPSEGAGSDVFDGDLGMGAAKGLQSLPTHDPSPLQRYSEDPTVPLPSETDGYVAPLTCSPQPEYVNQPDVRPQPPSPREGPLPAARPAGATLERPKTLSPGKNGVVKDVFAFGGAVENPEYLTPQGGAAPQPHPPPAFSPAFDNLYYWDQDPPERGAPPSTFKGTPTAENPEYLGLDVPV

Regarding `Fc1cccc(COc2ccc(Nc3ncnc4ccc(/C=N/OCCN5CCCC5)cc34)cc2Cl)c1` [Compound V-6], the IC50 at EGFR (setting [1]) is 6.5 nM; against HER2 (setting [2]), 3.6 nM; in the experiment with BT-474 (Homo sapiens, BT-474, 72 h), 110 nM.
For `Fc1cccc(COc2ccc(Nc3ncnc4ccc(/C=N/OCCN5CCOCC5)cc34)cc2Cl)c1` [Compound V-7] the same measures were 36 nM, 76 nM and 134 nM.
For `C=CC(=O)N1CCN(CCON=Cc2ccc3ncnc(Nc4ccc(OCc5cccc(F)c5)c(Cl)c4)c3c2)CC1` [Compound V-43, 4-(3-chloro-4-(3-fluorobenzyloxy)phenylamino)-6-(2-(4-acryloyl-1-piperazin-1-yl)ethoxyimino)methylquinazoline] the same measures were 186 nM, 151 nM and 71 nM.
Regarding `Fc1cccc(COc2ccc(Nc3ncnc4ccc(C=NN5CCCC5)cc34)cc2Cl)c1` [IX-1, 4-(3-chloro-4-(3-fluorobenzyloxy)phenylamino)-6-(pyrrolidin-1-yliminomethyl)quinazoline], the IC50 turned out to be 138 nM on EGFR (setting [3]) and 203 nM on HER2 (setting [3]).
For `Fc1cccc(COc2ccc(Nc3ncnc4ccc(/C=N/N5CCCCC5)cc34)cc2Cl)c1` [IX-4] the same measures were 193 nM and 334 nM.
For `COC[C@@H]1CCCN1/N=C/c1ccc2ncnc(Nc3ccc(OCc4cccc(F)c4)c(Cl)c3)c2c1` [IX-6], the IC50 against EGFR (setting [3]) amounted to 344 nM; at HER2 (setting [3]), 326 nM.
As to `CN(/N=C/c1ccc2ncnc(Nc3ccc(OCc4cccc(F)c4)c(Cl)c3)c2c1)c1ccccc1` [IX-8], the IC50 against EGFR (setting [3]) amounted to 426 nM; on HER2 (setting [3]) it was 549 nM.
Take `CC/C(=N\OCCN1CCOCC1)c1ccc2ncnc(Nc3ccc(OCc4cccc(F)c4)c(Cl)c3)c2c1` [VIII-7]: the IC50 at EGFR (setting [1]) was found to be 103 nM; against HER2 (setting [2]) it was 348 nM; in the experiment with BT-474 (Homo sapiens, BT-474, 72 h) it was 63 nM.
On the same counts, the results for `CC#CC(=NOCCN1CCOCC1)c1ccc2ncnc(Nc3ccc(OCc4cccc(F)c4)c(Cl)c3)c2c1` [VIII-10] are 409 nM, 484 nM and 27 nM.
For `O=S1(=O)CCN(CCON=C(c2ccccc2)c2ccc3ncnc(Nc4ccc(OCc5cccc(F)c5)c(Cl)c4)c3c2)CC1` [VIII-12] the same measures were 209 nM, 227 nM and 69 nM.
On the same counts, the results for `Fc1cccc(COc2ccc(Nc3ncnc4ccc(C(=NOCCN5CCOCC5)c5ccccc5)cc34)cc2Cl)c1` [VIII-13] are 300 nM, 888 nM and 64 nM.
For `CC/C(=N\OCCNCCS(C)(=O)=O)c1ccc2ncnc(Nc3ccc(OCc4cccc(F)c4)c(Cl)c3)c2c1` [VIII-19], the values for the IC50 at EGFR (setting [1]) and on HER2 (setting [2]) were 89 nM and 115 nM, respectively.
`CC/C(=N\OCCNC)c1ccc2ncnc(Nc3ccc(OCc4cccc(F)c4)c(Cl)c3)c2c1` [VIII-20]: the IC50 against EGFR (setting [1]) is 29 nM; against HER2 (setting [2]), 31 nM; with BT-474 (Homo sapiens, BT-474, 72 h), 37 nM.
Consider `CC#C/C(=N\OCCNC)c1ccc2ncnc(Nc3ccc(OCc4cccc(F)c4)c(Cl)c3)c2c1` [VIII-27], for which the IC50 against EGFR (setting [1]) stood at 33 nM; on HER2 (setting [2]), 43 nM; with BT-474, 13 nM.
In the case of `CC#C/C(=N\OCCNC1CCCCC1)c1ccc2ncnc(Nc3ccc(OCc4cccc(F)c4)c(Cl)c3)c2c1` [VIII-28], the values for the IC50 against EGFR (setting [1]), against HER2 (setting [2]) and with BT-474 were 162 nM, 167 nM and 72 nM, respectively.
In the case of `CS(=O)(=O)CCNCCON=C(c1ccccc1)c1ccc2ncnc(Nc3ccc(OCc4cccc(F)c4)c(Cl)c3)c2c1` [VIII-29], the IC50 turned out to be 102 nM on EGFR (setting [1]); 513 nM against HER2 (setting [2]); 77 nM with BT-474 (Homo sapiens, BT-474, 72 h).
Take `CC#CC(=NOC[C@@H]1CNCCO1)c1ccc2ncnc(Nc3ccc(OCc4cccc(F)c4)c(Cl)c3)c2c1` [VIII-32, 4-(3-chloro-4-(3-fluorobenzyloxy)phenylamino)-6-(1-((S)-morpholin-2-ylmethoxyimino)-2-butyn-1-yl)quinazoline dihydrochloride]: the IC50 at EGFR (setting [1]) was found to be 50 nM; against HER2 (setting [2]), 46 nM; in the experiment with BT-474 (Homo sapiens, BT-474, 72 h), 32 nM.
In the case of `CC#CC(=NOCCNCC)c1ccc2ncnc(Nc3ccc(OCc4cccc(F)c4)c(Cl)c3)c2c1` [VIII-35], the IC50 on EGFR (setting [1]) was determined as 11 nM; on HER2 (setting [2]), 25 nM; in the experiment on BT-474 (Homo sapiens, BT-474, 72 h) it was 24 nM.
With `CC#CC(=NOCC(C)N)c1ccc2ncnc(Nc3ccc(OCc4cccc(F)c4)c(Cl)c3)c2c1` (stereo not shown) [VIII-40], the IC50 on EGFR (setting [1]) was found to be 9.3 nM; at HER2 (setting [2]), 19.2 nM; with BT-474, 9 nM.
For `CC#C/C(=N\OC[C@@H](N)CO)c1ccc2ncnc(Nc3ccc(OCc4cccc(F)c4)c(Cl)c3)c2c1` [VIII-41] the same measures were 12 nM, 15 nM and 14 nM.
For `CC#C/C(=N\OCCN)c1ccc2ncnc(Nc3ccc(OCc4cccc(F)c4)c(Cl)c3)c2c1` [VIII-42] the same measures were 10 nM, 11 nM and 24 nM.
On the same counts, the results for `CC#C/C(=N\OCCNC(C)COC)c1ccc2ncnc(Nc3ccc(OCc4cccc(F)c4)c(Cl)c3)c2c1` (stereo not shown) [VIII-44] are 26 nM, 6.3 nM and 28 nM.
With `CC#C/C(=N\OCCNCCS(C)(=O)=O)c1ccc2ncnc(Nc3ccc(OCc4cccc(F)c4)c(Cl)c3)c2c1` [VIII-45], the IC50 worked out at 58 nM against EGFR (setting [1]), 152 nM at HER2 (setting [2]) and 13 nM with BT-474.
As for `CC#C/C(=N\OCCNC1CC1)c1ccc2ncnc(Nc3ccc(OCc4cccc(F)c4)c(Cl)c3)c2c1` [VIII-46], the IC50 is 82 nM on EGFR (setting [1]); 104 nM against HER2 (setting [2]); 12 nM in the experiment with BT-474 (Homo sapiens, BT-474, 72 h).
Turning to `CC#C/C(=N\OCCNCCNC(C)=O)c1ccc2ncnc(Nc3ccc(OCc4cccc(F)c4)c(Cl)c3)c2c1` [VIII-47], the figures for the IC50 at EGFR (setting [1]), against HER2 (setting [2]) and with BT-474 were 12 nM, 23 nM and 4 nM, respectively.
Take `CC#C/C(=N\OCCNC[C@H]1CCCO1)c1ccc2ncnc(Nc3ccc(OCc4cccc(F)c4)c(Cl)c3)c2c1` [VIII-48]: the IC50 against EGFR (setting [1]) was determined as 44 nM; on HER2 (setting [2]), 15 nM; in the experiment on BT-474, 28 nM.
Turning to `CC#C/C(=N\OCCNC[C@@H]1CCCO1)c1ccc2ncnc(Nc3ccc(OCc4cccc(F)c4)c(Cl)c3)c2c1` [VIII-49], the IC50 against EGFR (setting [1]) is 28 nM; against HER2 (setting [2]), 31 nM; in the experiment on BT-474, 28 nM.
As for `CC#C/C(=N\OCCNCCCN1CCCC1=O)c1ccc2ncnc(Nc3ccc(OCc4cccc(F)c4)c(Cl)c3)c2c1` [VIII-50], the IC50 against EGFR (setting [1]) came to 19 nM; at HER2 (setting [2]) it was 15 nM; with BT-474 (Homo sapiens, BT-474, 72 h) it was 27 nM.
For `CC#C/C(=N\OCCNCCNS(C)(=O)=O)c1ccc2ncnc(Nc3ccc(OCc4cccc(F)c4)c(Cl)c3)c2c1` [VIII-51] the same measures were 45 nM, 64 nM and 9 nM.
Regarding `CC#C/C(=N\OCCNC[C@H]1CCC(=O)N1)c1ccc2ncnc(Nc3ccc(OCc4cccc(F)c4)c(Cl)c3)c2c1` [VIII-52], the values for the IC50 at EGFR (setting [1]), against HER2 (setting [2]) and with BT-474 were 19 nM, 28 nM and 9 nM, respectively.
Regarding `CC#C/C(=N\OCCNCCOC(N)=O)c1ccc2ncnc(Nc3ccc(OCc4cccc(F)c4)c(Cl)c3)c2c1` [VIII-53], the IC50 on EGFR (setting [1]) stood at 79 nM; at HER2 (setting [2]), 80 nM; in the experiment with BT-474 (Homo sapiens, BT-474, 72 h) it was 12 nM.
Turning to `CC#C/C(=N\OCCNC1CCOCC1)c1ccc2ncnc(Nc3ccc(OCc4cccc(F)c4)c(Cl)c3)c2c1` [VIII-55], the IC50 against EGFR (setting [1]) worked out at 19 nM; against HER2 (setting [2]), 68 nM; in the experiment with BT-474 (Homo sapiens, BT-474, 72 h), 25 nM.
In the case of `CC#C/C(=N\OCCN(C)CCOC)c1ccc2ncnc(Nc3ccc(OCc4cccc(F)c4)c(Cl)c3)c2c1` [VIII-64], the IC50 is 52 nM on EGFR (setting [1]) and 22 nM in the experiment with BT-474 (Homo sapiens, BT-474, 72 h).
Regarding `CC#C/C(=N\OC[C@@H]1C[C@H](O)CN1)c1ccc2ncnc(Nc3ccc4c(cnn4Cc4cccc(F)c4)c3)c2c1` [VIII-200], in the experiment on BT-474, the IC50 was determined as 8 nM.

(Values after patent publication US8202879B2, “Quinazoline derivatives having tyrosine kinase inhibitory activity” (Shionogi & Co., Ltd., priority 2005, dated 2012).)
